Test results taken from the supplement of paper PMC10883282.

What was measured:
Assay in all cases: relative viability vs DMSO control (72 h) (fraction); higher = more viable cells
[1] = tested on: A204
Method in brief: (§1)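 Relative viability was measured with ATPLite and expressed as percent growth, averaged across up to triplicate wells. Sarcoma cell lines had been seeded in 384-well plates to reach 80–90% confluence, dosed after 24 h, and incubated 72 h at 37 °C, 5% CO2. All data were rescaled on a scale where 1 is full and 0 is none.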

[2] = tested on: G401
Method in brief: as §1

[3] = tested on: HS729
Method in brief: as §1

[4] = tested on: HT1080
Method in brief: as §1

[5] = tested on: KHOS-NP
Method in brief: as §1

[6] = tested on: RD-ES
Method in brief: as §1

[7] = tested on: SK-ES-1
Method in brief: as §1

[8] = tested on: SK-LMS-1
Method in brief: as §1

[9] = tested on: SW684
Method in brief: as §1

[10] = tested on: SW872
Method in brief: as §1

[11] = tested on: SW982
Method in brief: as §1

[12] = tested on: VA-ES-BJ
Method in brief: as §1

CC[C@@H]1CN(C(=O)NCC(F)(F)F)C[C@@H]1c1cnc2cnc3[nH]ccc3n12 [Upadacitinib]
Conditions | relative viability
[1], 0.00017 µM | 1.05
[1], 0.00051 µM | 1.1
[1], 0.00152 µM | 1.1
[1], 0.00457 µM | 1.07
[1], 0.01372 µM | 1.05
[1], 0.04115 µM | 1.05
[1], 0.1235 µM | 1.07
[1], 0.3704 µM | 1.03
[1], 1.111 µM | 1.03
[1], 3.333 µM | 0.945
[1], 10 µM | 0.832
[2], 0.00017 µM | 1.03
[2], 0.00051 µM | 1.04
[2], 0.00152 µM | 1
[2], 0.00457 µM | 1.04
[2], 0.01372 µM | 1.02
[2], 0.04115 µM | 0.987
[2], 0.1235 µM | 1.01
[2], 0.3704 µM | 0.977
[2], 1.111 µM | 0.953
[2], 3.333 µM | 0.904
[2], 10 µM | 0.842
[3], 0.00017 µM | 1.02
[3], 0.00051 µM | 0.954
[3], 0.00152 µM | 0.973
[3], 0.00457 µM | 0.97
[3], 0.01372 µM | 0.931
[3], 0.04115 µM | 0.946
[3], 0.1235 µM | 0.895
[3], 0.3704 µM | 0.837
[3], 1.111 µM | 0.834
[3], 3.333 µM | 0.805
[3], 10 µM | 0.761
[4], 0.00017 µM | 1.06
[4], 0.00051 µM | 1.06
[4], 0.00152 µM | 1.08
[4], 0.00457 µM | 1.05
[4], 0.01372 µM | 1.07
[4], 0.04115 µM | 1.06
[4], 0.1235 µM | 1.05
[4], 0.3704 µM | 1.062
[4], 1.111 µM | 1.035
[4], 3.333 µM | 1.01
[4], 10 µM | 0.9733
[5], 0.00017 µM | 1.07
[5], 0.00051 µM | 1.09
[5], 0.00152 µM | 1.07
[5], 0.00457 µM | 1.08
[5], 0.01372 µM | 1.08
[5], 0.04115 µM | 1.088
[5], 0.1235 µM | 1.07
[5], 0.3704 µM | 1.06
[5], 1.111 µM | 1.03
[5], 3.333 µM | 0.965
[5], 10 µM | 0.912
[6], 0.00017 µM | 0.981
[6], 0.00051 µM | 0.979
[6], 0.00152 µM | 1
[6], 0.00457 µM | 0.979
[6], 0.01372 µM | 1
[6], 0.04115 µM | 0.99
[6], 0.1235 µM | 0.97
[6], 0.3704 µM | 0.974
[6], 1.111 µM | 0.964
[6], 3.333 µM | 0.996
[6], 10 µM | 0.989
[7], 0.00017 µM | 1.02
[7], 0.00051 µM | 1.01
[7], 0.00152 µM | 1.05
[7], 0.00457 µM | 1.02
[7], 0.01372 µM | 1.02
[7], 0.04115 µM | 1
[7], 0.1235 µM | 1.058
[7], 0.3704 µM | 1.01
[7], 1.111 µM | 0.982
[7], 3.333 µM | 0.986
[7], 10 µM | 0.907
[8], 0.00017 µM | 1.06
[8], 0.00051 µM | 1.05
[8], 0.00152 µM | 1.07
[8], 0.00457 µM | 1.07
[8], 0.01372 µM | 1.09
[8], 0.04115 µM | 1.08
[8], 0.1235 µM | 1.056
[8], 0.3704 µM | 1.05
[8], 1.111 µM | 1.02
[8], 3.333 µM | 0.979
[8], 10 µM | 0.772
[9], 0.00017 µM | 1.1
[9], 0.00051 µM | 1.19
[9], 0.00152 µM | 1.18
[9], 0.00457 µM | 1.18
[9], 0.01372 µM | 1.17
[9], 0.04115 µM | 1.16
[9], 0.1235 µM | 1.18
[9], 0.3704 µM | 1.13
[9], 1.111 µM | 1.17
[9], 3.333 µM | 1.11
[9], 10 µM | 1.03
[10], 0.00017 µM | 1.07
[10], 0.00051 µM | 1.07
[10], 0.00152 µM | 1.07
[10], 0.00457 µM | 1.03
[10], 0.01372 µM | 1.03
[10], 0.04115 µM | 1.01
[10], 0.1235 µM | 1.01
[10], 0.3704 µM | 0.963
[10], 1.111 µM | 1
[10], 3.333 µM | 0.97
[10], 10 µM | 0.85
[11], 0.00017 µM | 1.01
[11], 0.00051 µM | 1.022
[11], 0.00152 µM | 1.05
[11], 0.00457 µM | 1.05
[11], 0.01372 µM | 1.052
[11], 0.04115 µM | 1.04
[11], 0.1235 µM | 1.06
[11], 0.3704 µM | 1.043
[11], 1.111 µM | 1
[11], 3.333 µM | 0.969
[11], 10 µM | 0.779
[12], 0.00017 µM | 1.1
[12], 0.00051 µM | 1.05
[12], 0.00152 µM | 1.07
[12], 0.00457 µM | 1.04
[12], 0.01372 µM | 1.05
[12], 0.04115 µM | 1.06
[12], 0.1235 µM | 1.04
[12], 0.3704 µM | 1.037
[12], 1.111 µM | 1
[12], 3.333 µM | 1.03
[12], 10 µM | 0.995
